Data: ChEMBL document CHEMBL4334471, “Discovery of 1,8-disubstituted-[1,2,3]triazolo[4,5-c]quinoline derivatives as a new class of Hippo signaling pathway inhibitors” (Bioorg Med Chem Lett, 2019)

Key:
[1] = system: Tyrosine-protein kinase ABL1 (Homo sapiens), P00519 [T315I]; assay: Inhibition of human ABL1 T315I mutant (27 to end residues) assessed as residual activity at 10 uM using EAIYAAPFAKKK as substrate incubated for 40 mins in presence of [gamma-33ATP] by scintillation counting based radiometry assay relative to control
[2] = target: Protein-tyrosine kinase 6 (Homo sapiens) (UniProt Q13882); assay: Inhibition of recombinant full length human BRK assessed as residual activity at 10 uM using poly(Glu, Tyr) 4:1 as substrate incubated for 40 mins in presence of [gamma-33ATP] by scintillation counting based radiometry assay relative to control
Homo sapiens = species on record: Homo sapiens; assay: Inhibition of recombinant human BRSK2 S251I mutant (2 to end residues) assessed as residual activity at 10 uM using KKLNRTLSFAEPG substrate incubated for 40 mins in presence of [gamma-33ATP] by scintillation counting based radiometry assay relative to control
[3] = system: Calcium/calmodulin-dependent protein kinase kinase 2 (Homo sapiens), Q96RR4 [T85S]; assay: Inhibition of recombinant full length human CaMKK2 T85S mutant assessed as residual activity at 10 uM using […] incubated for 40 mins in presence of [gamma-33ATP] by scintillation counting based radiometry assay relative to control
[4] = target: Cyclin-dependent kinase 14/Cyclin-Y (Homo sapiens) (UniProt O94921+Q8ND76); assay: Inhibition of recombinant full length human CDK14/cyclinY assessed as residual activity at 10 uM in presence of [gamma-33ATP] by scintillation counting based radiometry assay relative to control; format: protein-complex assay
Fungi = assay: Inhibition of recombinant fungi CK1 (2 to 298 residues) assessed as residual activity at 10 uM using KRRRALS(p)VASLPGL as substrate incubated for 40 mins in presence of [gamma-33ATP] by scintillation counting based radiometry assay relative to control
[5] = target: Tyrosine-protein kinase Fgr (Homo sapiens) (UniProt P09769); assay: Inhibition of recombinant human FGR (2 to end residues) assessed as residual activity at 10 uM using poly(Glu, Tyr) 4:1 as substrate at 40 mins in presence of [gamma-33ATP] by scintillation counting based radiometry assay relative to control
[6] = target: Receptor-type tyrosine-protein kinase FLT3 (Homo sapiens) (UniProt P36888); assay: Inhibition of recombinant human FLT3 (564 to end residues) assessed as residual activity at 10 uM using EAIYAAPFAKKK as substrate at 40 mins in presence of [gamma-33ATP] by scintillation counting based radiometry assay relative to control
[7] = target: Tyrosine-protein kinase Lyn (Mus musculus) (UniProt P25911); assay: Inhibition of recombinant full length mouse Lyn assessed as residual activity at 10 uM using poly(Glu, Tyr) 4:1 as substrate after 40 mins in presence of [gamma-33ATP] by scintillation counting based radiometry assay relative to control
[8] = target: Dual specificity mitogen-activated protein kinase kinase 2 (Homo sapiens) (UniProt P36507); assay: Inhibition of recombinant human MEK2 assessed as residual activity at 10 uM using MBP as substrate incubated for 40 mins in presence of [gamma-33ATP by scintillation counting based radiometry assay relative to control
[9] = target: Serine/threonine-protein kinase MRCK beta (Homo sapiens) (UniProt Q9Y5S2); assay: Inhibition of recombinant human MRCKbeta (1 to 473 residues) assessed as residual activity at 10 uM using KKRNRTLTV as substrate incubated for 40 mins in presence of [gamma-33ATP by scintillation counting based radiometry assay relative to control
[10] = target: Ribosomal protein S6 kinase alpha-4 (Homo sapiens) (UniProt O75676); assay: Inhibition of recombinant human MSK2 (2 to end residues) assessed as residual activity at 10 uM using GRPRTSSFAEGKK as substrate incubated for 40 mins in presence of [gamma-33ATP by scintillation counting based radiometry assay relative to control
[11] = system: Platelet-derived growth factor receptor alpha (Homo sapiens), P16234 [D842V]; assay: Inhibition of human PDGFRalpha D842V mutant (550 to end residues) assessed as residual activity at 10 uM using poly(Glu, Tyr) 4:1 as substrate measured after 40 mins in presence of [gamma33P]ATP by scintillation counting based radiometry assay relative to control
[12] = system: Platelet-derived growth factor receptor alpha (Homo sapiens), P16234 [V561D]; assay: Inhibition of human PDGFRalpha V561D mutant (550 to end residues) assessed as residual activity at 10 uM using poly(Glu, Tyr) 4:1 as substrate measured after 40 mins in presence of [gamma33P]ATP by scintillation counting based radiometry assay relative to control
[13] = target: Protein kinase C epsilon type (Homo sapiens) (UniProt Q02156); assay: Inhibition of recombinant human PKCepsilon (2 to end residues) assessed as residual activity at 10 uM using ERMRPRKRQGSVRRRV as substrate incubated for 40 mins in presence of [gamma33P]ATP by scintillation counting based radiometry assay relative to control
[14] = target: Serine/threonine-protein kinase PRP4 homolog (Homo sapiens) (UniProt Q13523); assay: Inhibition of recombinant human PRP4 (663 to end residues) assessed as residual activity at 10 uM using casein as substrate incubated for 40 mins in presence of [gamma33P]ATP by scintillation counting based radiometry assay relative to control
[15] = target: Serine/threonine-protein kinase tousled-like 2 (Homo sapiens) (UniProt Q86UE8); assay: Inhibition of recombinant human TLK2 (387 to end residues) assessed as residual activity at 10 uM using casein as substrate incubated for 40 mins in presence of [gamma33P]ATP by scintillation counting based radiometry assay relative to control
[16] = target: TRAF2 and NCK-interacting protein kinase (Homo sapiens) (UniProt Q9UKE5); assay: Inhibition of human TNIK (1 to 367 residues) assessed as residual activity at 10 uM using RLGRDKYKTLRQIRQ as substrate incubated for 40 mins in presence of [gamma33P]ATP by scintillation counting based radiometry assay relative to control
[17] = target: Tau-tubulin kinase 2 (Homo sapiens) (UniProt Q6IQ55); assay: Inhibition of recombinant human TTBK2 (1 to 331 residues) assessed as residual activity at 10 uM using casein as substrate incubated for 40 mins in presence of [gamma33P]ATP by scintillation counting based radiometry assay relative to control
[18] = target: Serine/threonine-protein kinase ULK3 (Homo sapiens) (UniProt Q6PHR2); assay: Inhibition of recombinant human full length ULK3 assessed as residual activity at 10 uM using casein as substrate incubated for 40 mins in presence of [gamma33P]ATP by scintillation counting based radiometry assay relative to control
[19] = target: Wee1-like protein kinase (Homo sapiens) (UniProt P30291); assay: Inhibition of recombinant human WEE1 (214 to end residues) assessed as residual activity at 10 uM using LSNLYHQGKFLQTFCGSPLYRRR as substrate incubated for 40 mins in presence of [gamma33P]ATP by scintillation counting based radiometry assay relative to control
Wee1-like protein kinase (Homo sapiens), sequence (P30291 whole entry, looked up): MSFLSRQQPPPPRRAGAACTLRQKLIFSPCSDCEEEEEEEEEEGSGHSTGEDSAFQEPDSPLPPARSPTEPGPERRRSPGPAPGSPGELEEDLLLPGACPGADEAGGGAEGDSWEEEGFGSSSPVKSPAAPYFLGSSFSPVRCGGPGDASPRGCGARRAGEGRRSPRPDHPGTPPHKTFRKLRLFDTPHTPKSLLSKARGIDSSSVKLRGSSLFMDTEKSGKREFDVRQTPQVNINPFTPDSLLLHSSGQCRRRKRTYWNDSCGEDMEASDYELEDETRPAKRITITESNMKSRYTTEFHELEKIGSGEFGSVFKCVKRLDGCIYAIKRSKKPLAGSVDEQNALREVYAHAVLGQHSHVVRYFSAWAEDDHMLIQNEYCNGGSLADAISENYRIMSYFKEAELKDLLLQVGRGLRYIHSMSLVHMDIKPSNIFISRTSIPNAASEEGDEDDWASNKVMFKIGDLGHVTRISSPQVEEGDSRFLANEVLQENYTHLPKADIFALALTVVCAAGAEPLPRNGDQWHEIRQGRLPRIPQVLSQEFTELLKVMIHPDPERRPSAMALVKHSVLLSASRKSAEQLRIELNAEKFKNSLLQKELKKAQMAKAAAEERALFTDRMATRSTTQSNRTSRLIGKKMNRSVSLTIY

Serine/threonine-protein kinase ULK3 (Homo sapiens), sequence (Q6PHR2 whole entry): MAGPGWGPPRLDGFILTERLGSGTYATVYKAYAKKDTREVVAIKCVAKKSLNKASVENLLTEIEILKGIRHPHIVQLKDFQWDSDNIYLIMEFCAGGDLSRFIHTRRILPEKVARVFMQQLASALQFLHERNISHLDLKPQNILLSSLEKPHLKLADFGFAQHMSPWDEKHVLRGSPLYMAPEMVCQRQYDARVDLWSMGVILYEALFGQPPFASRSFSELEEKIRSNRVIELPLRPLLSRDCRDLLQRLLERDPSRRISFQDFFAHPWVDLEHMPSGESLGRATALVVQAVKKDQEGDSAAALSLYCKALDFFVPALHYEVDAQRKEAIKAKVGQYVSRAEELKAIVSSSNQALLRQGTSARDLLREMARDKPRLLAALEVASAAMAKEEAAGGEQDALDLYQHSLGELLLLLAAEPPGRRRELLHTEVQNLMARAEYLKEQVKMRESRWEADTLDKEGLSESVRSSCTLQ
TRAF2 and NCK-interacting protein kinase (Homo sapiens), sequence (Q9UKE5 whole entry, looked up, the tested form may be a part): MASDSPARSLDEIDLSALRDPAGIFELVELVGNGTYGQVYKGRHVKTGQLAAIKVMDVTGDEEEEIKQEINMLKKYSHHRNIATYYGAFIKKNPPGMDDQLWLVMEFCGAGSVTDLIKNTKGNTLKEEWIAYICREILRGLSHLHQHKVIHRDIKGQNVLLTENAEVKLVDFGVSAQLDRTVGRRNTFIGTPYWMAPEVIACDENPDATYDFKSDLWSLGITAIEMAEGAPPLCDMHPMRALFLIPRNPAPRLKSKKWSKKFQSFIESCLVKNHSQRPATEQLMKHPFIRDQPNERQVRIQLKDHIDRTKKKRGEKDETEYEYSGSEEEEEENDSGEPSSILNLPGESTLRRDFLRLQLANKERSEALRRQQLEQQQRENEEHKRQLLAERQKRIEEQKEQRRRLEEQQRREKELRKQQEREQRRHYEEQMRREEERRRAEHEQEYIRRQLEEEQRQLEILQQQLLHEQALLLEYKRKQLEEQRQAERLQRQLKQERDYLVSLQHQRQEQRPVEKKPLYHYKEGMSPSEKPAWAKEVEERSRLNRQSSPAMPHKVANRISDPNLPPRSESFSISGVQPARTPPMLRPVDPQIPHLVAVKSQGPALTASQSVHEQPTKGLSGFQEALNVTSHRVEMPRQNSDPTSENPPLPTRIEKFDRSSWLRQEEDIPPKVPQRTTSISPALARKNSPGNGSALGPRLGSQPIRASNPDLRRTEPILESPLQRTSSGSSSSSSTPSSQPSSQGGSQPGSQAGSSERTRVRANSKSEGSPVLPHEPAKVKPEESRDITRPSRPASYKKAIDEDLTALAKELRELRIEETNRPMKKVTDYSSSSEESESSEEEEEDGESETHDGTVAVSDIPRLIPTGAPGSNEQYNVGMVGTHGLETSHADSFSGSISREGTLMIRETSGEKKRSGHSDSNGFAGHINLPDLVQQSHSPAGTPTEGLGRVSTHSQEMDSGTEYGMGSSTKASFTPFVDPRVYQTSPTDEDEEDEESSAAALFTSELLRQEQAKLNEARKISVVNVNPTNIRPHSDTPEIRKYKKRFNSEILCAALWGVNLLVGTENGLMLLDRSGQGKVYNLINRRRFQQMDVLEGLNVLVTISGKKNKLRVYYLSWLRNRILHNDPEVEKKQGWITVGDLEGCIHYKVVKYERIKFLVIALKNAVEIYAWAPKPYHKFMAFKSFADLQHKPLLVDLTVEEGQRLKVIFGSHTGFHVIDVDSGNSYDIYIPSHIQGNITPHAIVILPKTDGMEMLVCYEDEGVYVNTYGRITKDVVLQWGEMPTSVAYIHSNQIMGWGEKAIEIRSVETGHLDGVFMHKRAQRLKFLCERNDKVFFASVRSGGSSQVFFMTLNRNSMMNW
Tyrosine-protein kinase Fgr (Homo sapiens), sequence (P09769 2-529 limits assumed): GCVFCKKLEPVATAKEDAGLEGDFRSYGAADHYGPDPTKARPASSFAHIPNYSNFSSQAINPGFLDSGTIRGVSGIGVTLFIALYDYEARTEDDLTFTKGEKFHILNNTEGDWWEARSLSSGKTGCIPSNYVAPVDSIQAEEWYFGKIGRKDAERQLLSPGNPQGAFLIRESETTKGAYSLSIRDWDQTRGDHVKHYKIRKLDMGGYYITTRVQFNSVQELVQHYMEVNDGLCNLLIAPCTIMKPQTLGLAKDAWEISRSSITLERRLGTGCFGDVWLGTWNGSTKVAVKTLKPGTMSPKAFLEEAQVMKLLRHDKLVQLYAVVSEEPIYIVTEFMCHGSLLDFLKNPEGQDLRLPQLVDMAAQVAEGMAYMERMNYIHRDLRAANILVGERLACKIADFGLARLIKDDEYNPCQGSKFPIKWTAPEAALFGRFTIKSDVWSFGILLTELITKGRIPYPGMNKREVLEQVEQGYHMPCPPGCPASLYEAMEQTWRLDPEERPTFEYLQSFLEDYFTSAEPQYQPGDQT
Tyrosine-protein kinase Lyn (Mus musculus), sequence (P25911 whole entry): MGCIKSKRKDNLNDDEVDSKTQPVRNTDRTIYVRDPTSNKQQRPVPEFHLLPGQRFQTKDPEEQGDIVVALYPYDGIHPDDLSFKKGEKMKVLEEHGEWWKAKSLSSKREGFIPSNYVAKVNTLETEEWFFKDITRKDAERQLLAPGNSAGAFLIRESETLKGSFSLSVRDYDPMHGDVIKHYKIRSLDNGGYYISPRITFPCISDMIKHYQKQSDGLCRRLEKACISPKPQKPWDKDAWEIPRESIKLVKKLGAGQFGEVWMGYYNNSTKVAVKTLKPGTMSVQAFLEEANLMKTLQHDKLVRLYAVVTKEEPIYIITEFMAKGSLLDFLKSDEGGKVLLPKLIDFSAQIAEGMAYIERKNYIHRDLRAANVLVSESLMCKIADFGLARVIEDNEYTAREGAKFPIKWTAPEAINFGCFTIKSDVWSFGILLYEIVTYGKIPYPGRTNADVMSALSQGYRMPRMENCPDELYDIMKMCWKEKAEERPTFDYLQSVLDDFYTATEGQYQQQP
Serine/threonine-protein kinase PRP4 homolog (Homo sapiens), sequence (Q13523 whole entry): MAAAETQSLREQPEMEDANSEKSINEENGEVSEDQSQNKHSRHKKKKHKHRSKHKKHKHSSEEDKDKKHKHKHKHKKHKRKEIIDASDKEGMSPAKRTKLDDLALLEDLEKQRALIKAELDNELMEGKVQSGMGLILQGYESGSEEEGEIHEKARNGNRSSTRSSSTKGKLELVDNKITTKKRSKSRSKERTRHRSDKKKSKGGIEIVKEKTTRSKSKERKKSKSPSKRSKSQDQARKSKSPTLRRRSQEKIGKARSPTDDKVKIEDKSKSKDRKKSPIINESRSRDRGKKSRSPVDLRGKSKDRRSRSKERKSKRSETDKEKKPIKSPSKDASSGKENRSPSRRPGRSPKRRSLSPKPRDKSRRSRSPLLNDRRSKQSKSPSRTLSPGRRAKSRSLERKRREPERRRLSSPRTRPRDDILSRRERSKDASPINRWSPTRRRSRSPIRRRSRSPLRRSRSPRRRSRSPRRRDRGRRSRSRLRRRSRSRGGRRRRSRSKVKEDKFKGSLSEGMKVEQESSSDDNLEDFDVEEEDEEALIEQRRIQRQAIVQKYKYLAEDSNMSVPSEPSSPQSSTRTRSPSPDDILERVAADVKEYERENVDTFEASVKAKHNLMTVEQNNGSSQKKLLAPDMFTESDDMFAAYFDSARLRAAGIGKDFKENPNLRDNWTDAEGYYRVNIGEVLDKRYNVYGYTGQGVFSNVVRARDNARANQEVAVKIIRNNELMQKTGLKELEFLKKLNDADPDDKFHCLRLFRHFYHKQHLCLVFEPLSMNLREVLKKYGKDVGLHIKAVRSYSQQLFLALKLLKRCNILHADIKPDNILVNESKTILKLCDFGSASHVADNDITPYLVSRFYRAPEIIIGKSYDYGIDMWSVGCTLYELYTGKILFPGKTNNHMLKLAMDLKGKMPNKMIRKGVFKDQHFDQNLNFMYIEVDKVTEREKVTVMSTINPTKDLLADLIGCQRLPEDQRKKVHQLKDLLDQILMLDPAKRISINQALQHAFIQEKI
Dual specificity mitogen-activated protein kinase kinase 2 (Homo sapiens), sequence (P36507 whole entry, the tested form may be a part): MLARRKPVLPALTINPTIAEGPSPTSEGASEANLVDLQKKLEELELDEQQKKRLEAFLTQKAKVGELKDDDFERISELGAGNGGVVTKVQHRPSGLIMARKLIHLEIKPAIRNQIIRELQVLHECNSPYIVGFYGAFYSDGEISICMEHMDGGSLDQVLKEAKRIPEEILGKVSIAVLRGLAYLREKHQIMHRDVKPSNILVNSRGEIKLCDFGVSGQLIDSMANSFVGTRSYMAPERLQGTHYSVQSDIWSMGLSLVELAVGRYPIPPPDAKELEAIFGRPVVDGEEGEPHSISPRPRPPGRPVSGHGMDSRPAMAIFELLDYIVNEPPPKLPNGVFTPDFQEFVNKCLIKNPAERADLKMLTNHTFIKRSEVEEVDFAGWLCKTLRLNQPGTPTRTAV

SMILES: C[C@@H](c1ccccc1)n1nnc2cnc3ccc(-c4cnc5[nH]ccc5c4)cc3c21
- Activity [1]: 110%
- Activity [2]: 21%
- Activity (Homo sapiens): 77%
- Activity [3]: 79%
- Activity [4]: 92%
- Activity (Fungi): 37%
- Activity [5]: 5%
- Activity [6]: 28%
- Activity [7]: 3%
- Activity [8]: 92%
- Activity [9]: 105%
- Activity [10]: 58%
- Activity [11]: 4%
- Activity [12]: 2%
- Activity [13]: 97%
- Activity [14]: 86%
- Activity [15]: 106%
- Activity [16]: 16%
- Activity [17]: 87%
- Activity [18]: 94%
- Activity [19]: 101%
